# Measured values taken from patent US6646006B2, “Enhancement of vascular function by modulation of endogenous nitric oxide production or activity” (The Board of Trustees of the Leland Stanford Junior …, priority 1993, dated 2003).
# Columns and labels:
# [1] = tested on: rabbit aortic endothelium; test: Ex vivo binding of WEHI 78/24 monocytoid cells to rabbit aortic endothelium; type: in vivo; conditions: two weeks, L-arginine supplementation
# Excerpt: Methods. Animals. Male New Zealand White rabbits were pair fed, receiving one of the following dietary interventions for two weeks: normal rabbit chow (Cont, n=7); rabbit chow enriched with 1% cholesterol (Chol, n=7); or 1% cholesterol chow supplemented with 2.25% L-arginine HCl in the drinking water (Arg, n=7) ad libitum throughout the course of the study. […] One day before sacrifice (after 2 weeks of dietary intervention), animals were lightly sedated and the central ear artery was cannulated for collection of blood samples.
# Mononuclear cell culture and isolation. Murine monocytoid cells, WEHI 78/24 cells were grown in Dulbecco's Modified Eagle's Medium supplemented 10% fetal calf serum (vol/vol) and were kept in an atmosphere of 5% CO2/95% air. Prior to binding studies, mononuclear cells were fluorescently labeled with TRITC (3 μg/ml). To confirm the results using WEHI cells, in some studies binding studies were performed in parallel using rabbit mononuclear cells. Mononuclear cells were isolated from fresh whole blood of Control rabbits before sacrifice.
# Preparation of aortic endothelium and binding assay. […]
# After 10 minutes the HBSS medium was replaced by binding medium containing WEHI cells. […] The aortic segments were then removed and placed on a glass slide, and adherent cells counted under epifluorescent microscopy from at least 30 sites on each segment.
# [2] = tested on: hypercholesterolemic rabbits; test: Histomorphometry and lesion surface area planimetry of thoracic aorta and left main coronary artery; type: in vivo, rabbit
# Excerpt: (§1) Study design: (See, Cooke et al., 1992, supra) Male New Zealand white rabbits (n=49) were assigned to one of three treatment groups: 10 were fed with normal rabbit chow for ten weeks (Control); 19 received chow enriched with 1% cholesterol (Chol); and 20 received a 1% cholesterol diet supplemented with 2.25% L-arginine hydrochloride in the drinking water (Arg.). […] Subsequently the animals were sacrificed and the left main coronary artery and the thoracic aorta were harvested for studies of vascular reactivity and histomorphometry. In some animals, blood was collected for studies of platelet and monocyte reactivity.
# By contrast, the intimal cross-sectional area (i.e. amount of atherosclerotic plaque) of vessels from hypercholesterolemic animals receiving L-arginine supplementation was reduced in comparison to those from animals receiving cholesterol diet alone. In the Arg animals the reduction in the intimal lesion was most pronounced in the ascending thoracic aorta and left main coronary artery.
# Changes in lesion surface area: In a second series of studies, the extent of the thoracic aorta involved by lesions was examined. In hypercholesterolemic rabbits receiving vehicle (n=6) or L-arginine supplement (n=6), thoracic aortae (from left subclavian artery to diaphragm) were harvested after ten weeks of treatment, bisected longitudinally, and stained with oil-red O. Vessels were photographed and vessel and lesion surface area determined by planimetry. Approximately 40% of the total surface area was covered with plaque in thoracic aortae from hypercholesterolemic animals receiving vehicle, whereas in thoracic aortae from arginine-treated hypercholesterolemic animals, less than 10% of the surface area was covered with plaque (FIG. 1).
# [3] = tested on: hypercholesterolemic rabbits; test: Organ chamber studies of isolated vessels from cholesterol-fed rabbits; type: in vivo, rabbit
# Excerpt: as §1
# By contrast, NO-dependent relaxations were attenuated in vessels harvested from hypercholesterolemic animals with a reduction in the maximal response to acetylcholine. In comparison, vessels harvested from hypercholesterolemic animals receiving L-arginine supplementation had improved NO-dependent relaxation to acetylcholine. In a separate study, the effect of chronic arginine supplementation to improve NO-dependent relaxation was confirmed in the hypercholesterolemic rabbit abdominal aorta.
# [4] = tested on: hypercholesterolemic rabbits; test: Local intraluminal arginine after iliac artery angioplasty in cholesterol-fed rabbits; type: in vivo, rabbit; conditions: local infusion 6 mM, four weeks
# Excerpt: FIG. 8 is a histogram showing the effect of local-intraluminal administration of arginine on restenosis. Hypercholesterolemic rabbits had balloon angioplasty of the iliac artery. Immediately thereafter some animals received an infusion of arginine directly into the vessel by means of a catheter designed to apply high local concentrations of arginine to the vessel. Two to four weeks later, vessels were removed from the animals, and examined microscopically. Thickening of the vessel wall (internal thickening or “restenosis”) was reduced in the animals treated with intraluminal infusion of arginine (ARG) in comparison to those treated with vehicle. (See Ex. 12)
# To determine if intraluminal application of arginine to the vessel wall at the time of balloon angioplasty could inhibit lesion formation, the following study was performed. Rabbits (n=7) were fed a 1% cholesterol diet. After one week, angioplasty of the iliac arteries was performed. After angioplasty of one iliac artery, a local infusion catheter was used to expose the injured area to a high concentration of arginine (6 mM). The other iliac artery was subjected to balloon angioplasty, but not treated with a local infusion. After four weeks, the vessels were harvested, and segments of the arteries processed for histomorphometry.
# [5] = set-up: species or system human; conditions: in vivo, po
# Protocol: The control subject population in this study included 12 normal volunteers, (10 males and 2 females), with an average age of 37±2 yrs. Normalcy was determined by a careful history, physical examination, and laboratory analysis to exclude individuals with hematologic, renal, or hepatic dysfunction or clinically evident atherosclerosis. There were 20 patients (10 males and 10 females) with hypercholesterolemia as defined by a total plasma cholesterol greater than 240 mg/dl and a LDL cholesterol level greater than 160 mg/dl. […] None of the subjects were taking diuretics, vasoactive medications, antiplatelet or hypolipidemic medications. This study was approved by the Stanford University Administrative Panel on Human Subjects in Medical Research and each subject gave written informed consent before entry into the study. Blood was drawn from each subject in the postabsorptive state.
# Results. Oral administration of L-arginine ([…] for 2 weeks) to hypercholesterolemic humans increased plasma arginine values by 60% (from […]; n=7), whereas L-arginine values in the placebo-treated (n=3) and normocholesterolemic (n=6) groups remained unchanged.
# platelets = test: ADP-initiated platelet aggregation (nephelometry), platelets from treated rabbits; type: in vivo, rabbit
# Protocol: The effect of L-arginine supplementation on platelet reactivity in rabbits that had normal chow (Control; n=6), a 1% cholesterol diet (Chol; n=5), or a 1% cholesterol diet supplemented with oral arginine (Arg; n=6), as detailed above, was examined. Arterial blood obtained after central ear artery cannulation was anticoagulated with 13 mM sodium citrate. Platelet-rich suspension was prepared by washing platelets in calcium-free Krebs-Henseleit solution and resuspending them in Tyrode's solution with albumin. Aggregation was initiated by addition of adenosine diphosphate and monitored by standard nephelometric techniques. In platelets derived from Chol animals, aggregation was not different in rate or maximum extent in comparison to platelets from Control animals (A, in FIG. 2). By contrast, aggregation of platelets from Arg animals was reduced by 50% (B, in FIG. 2).
# Therefore, the anti-platelet effect of chronic oral arginine administration can be credited to an increased synthesis of endogenous NO. Furthermore, NO synthesis may be induced in both the platelets and the endothelium.
# [6] = tested on: hypercholesterolemic rabbits; test: Oral arginine in cholesterol-fed rabbits: biochemical and physiological measurements; type: in vivo, rabbit; conditions: 1% cholesterol diet + 2.25% L-arginine HCl in drinking water, vs Control or Chol diet
# Excerpt: as §1
# Results: Biochemical and physiological measurements. […] Serum cholesterol measurements were elevated equally in both groups receiving the 1% cholesterol diet [50±6 vs. 1629±422 vs. 1852±356 mg/dl respectively for Control (=10), Chol (=13), and Arg (=14)].
# MCP-1 = test: Northern analysis of MCP-1 expression in thoracic aortae; type: in vivo, rabbit; conditions: two weeks; L-NA on normal chow, Arg on high cholesterol diet
# Excerpt: To investigate the role of endogenous NO in the regulation of MCP-1 in vivo, NZW rabbits were fed normal chow, normal chow plus nitro-L-arginine (L-NA) (to inhibit vascular NO synthesis), high cholesterol diet (Chol), or high cholesterol diet supplemented with L-arginine (Arg) (to enhance NO synthesis). After two weeks, thoracic aortae were harvested and total RNA was isolated. […] These studies indicate that the anti-atherogenic effect of NO may be mediated in part by its inhibition of MCP-1 expression. NO inhibits the generation of superoxide anion by the vascular cells and thereby turns off an oxidant-responsive transcriptional pathway (i.e. NFκB-mediated transcription) activating MCP-1 expression.
smiles,measurement,setting,value
N=C(N)NCCC[C@H](N)C(=O)O [L-arginine],increased WEHI cell binding to aortic endothelium of hypercholesterolemic animals,[1],significantly attenuated
same,atherosclerotic plaque in the left main coronary artery,[2]; hypercholesterolemic animals receiving arginine,essentially no atherosclerotic plaque developed
same,surface area of thoracic aorta covered with plaque,"[2]; ten weeks, oil-red O, planimetry",less than 10%
same,intimal cross-sectional area (amount of atherosclerotic plaque),[2]; vs cholesterol diet alone,reduced
same,NO-independent responses: maximal response or sensitivity to norepinephrine or nitroglycerin,[3]; differences between treatment groups,no differences
same,NO-dependent relaxation to acetylcholine,[3]; vs hypercholesterolemic animals without supplement,improved
same,thickening of the vessel wall in arginine-treated vessels,[4],significantly reduced
same,increase of plasma arginine values,"[5]; human, 2 weeks",60%
same,plasma arginine value after treatment,"[5]; human, 2 weeks",128 ± 12 mM
same,effect on biochemical or hematologic parameters,[5],no effect
same,tolerability,[5],well tolerated
same,cGMP content in aggregated platelets,platelets; arginine-treated animals,two-fold greater
same,reduction of platelet aggregation,"platelets; platelets from Arg animals, adenosine diphosphate",50%
same,plasma arginine levels,[6],twofold elevation
same,expression of MCP-1 in aortae,MCP-1,decreased
